From ChEMBL document CHEMBL1141600, “Biphenyl versus phenylpyridazine derivatives: the role of the heterocycle in a series of acyl-CoA:cholesterol acyl transferase inhibitors” (J Med Chem, 2008)

Key:
[1] = molecular target: T1, Sterol O-acyltransferase 2 (Homo sapiens, UniProt O75908); assay: Inhibition of human ACAT2 expressed in insect Hi5 cells; design: species or system BTI-TN-5B1-4
T1 sequence (O75908 whole entry): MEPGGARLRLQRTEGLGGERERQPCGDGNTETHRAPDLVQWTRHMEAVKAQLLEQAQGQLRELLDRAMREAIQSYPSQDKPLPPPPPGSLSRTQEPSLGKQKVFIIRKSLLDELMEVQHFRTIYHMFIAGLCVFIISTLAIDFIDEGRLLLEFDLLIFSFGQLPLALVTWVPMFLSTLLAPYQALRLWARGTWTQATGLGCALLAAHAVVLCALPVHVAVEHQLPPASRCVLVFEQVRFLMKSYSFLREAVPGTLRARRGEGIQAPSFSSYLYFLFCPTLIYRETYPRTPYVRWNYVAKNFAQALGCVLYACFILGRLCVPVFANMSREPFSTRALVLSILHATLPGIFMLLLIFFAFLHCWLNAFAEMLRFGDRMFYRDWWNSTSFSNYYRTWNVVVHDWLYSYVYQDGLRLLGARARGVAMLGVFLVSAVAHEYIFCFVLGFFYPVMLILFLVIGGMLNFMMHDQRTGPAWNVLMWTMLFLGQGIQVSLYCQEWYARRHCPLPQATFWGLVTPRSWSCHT

[2] = molecular target: T2, Sterol O-acyltransferase 2 (Homo sapiens) (UniProt O75908); assay: Inhibition of human ACAT2 expressed in insect Hi5 cells at 50 uM; settings: BTI-TN-5B1-4
T2 sequence (whole entry): T1 sequence (O75908 whole entry)

[3] = molecular target: T2, Sterol O-acyltransferase 2 (Homo sapiens); assay: Inhibition of human ACAT2 expressed in insect Hi5 cells at 0.5 uM; settings: BTI-TN-5B1-4
[4] = molecular target: T3, Sterol O-acyltransferase 1 (Homo sapiens) (UniProt P35610); assay: Inhibition of human ACAT1 expressed in insect Hi5 cells at 0.5 uM; settings: BTI-TN-5B1-4
T3 sequence (whole entry): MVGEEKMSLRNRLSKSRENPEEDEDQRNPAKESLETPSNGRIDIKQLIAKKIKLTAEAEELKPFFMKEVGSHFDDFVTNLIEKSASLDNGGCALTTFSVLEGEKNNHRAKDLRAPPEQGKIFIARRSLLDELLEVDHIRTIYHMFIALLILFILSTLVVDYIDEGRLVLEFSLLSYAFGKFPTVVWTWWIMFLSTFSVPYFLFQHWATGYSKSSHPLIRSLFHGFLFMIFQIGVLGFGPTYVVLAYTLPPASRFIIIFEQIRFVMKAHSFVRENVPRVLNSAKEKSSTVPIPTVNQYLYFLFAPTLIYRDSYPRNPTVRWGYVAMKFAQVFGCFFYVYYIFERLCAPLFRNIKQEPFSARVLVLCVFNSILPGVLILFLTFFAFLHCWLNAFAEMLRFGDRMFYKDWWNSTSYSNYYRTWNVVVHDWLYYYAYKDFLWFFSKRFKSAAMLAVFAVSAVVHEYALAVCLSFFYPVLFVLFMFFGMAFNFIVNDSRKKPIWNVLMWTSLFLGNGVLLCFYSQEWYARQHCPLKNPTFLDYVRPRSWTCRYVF

Structure (SMILES)	inhibition [2] [%]	other results
CCCCCCCC(=O)Nc1ccccc1-c1ccccc1	39	IC50 [1]: 230 µM
CCCCCCCCCNc1ccccc1-c1ccccc1	-1	–
CCCCCCCC(=O)Nc1ccc(-c2ccccc2)cc1	11	–
CCCCCCCCNc1ccccc1-c1ccccc1	-4	–
CCCCCCCCC(=O)Nc1ccc(-c2ccccc2)cc1	20	–
CCCCCCCCC(=O)Nc1ccccc1-c1ccccc1	27	IC50 [1]: 414 µM
CCCCCCCCC(=O)Nc1cccc(-c2ccccc2)c1	-6	–
CCCCCCCCCNc1cccc(-c2ccccc2)c1	-8	–
CCCCCCCC/C=C\CCC(CCCC(C(=O)Nc1ccccc1)C(C)C)C(C)C (stereo not given)	–	inhibition [3]: 47%; inhibition [4]: 53%
CCCCCCCCCNc1ccc(-c2ccccc2)cc1	18	–
CCCCCCCCNc1ccc(-c2ccccc2)cc1	6	–
CCCCCCCC(=O)Nc1cccc(-c2ccccc2)c1	-4	–
